Measurements published in patent publication US9808003B2, “Herbicidally active 2-(substituted-phenyl)-cyclopentane-1,3-dione compounds and derivatives thereof” (Syngenta Limited, priority 2013, dated 2017).

Legend:
Format in all cases: in vivo
[1] = test system: Spring Barley “Harrington”; experiment: Test 1B glasshouse assay, post-emergence herbicidal activity against cereal crops; settings: 14 DAA
Outline: (§1)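 Technical compound in IF50 with acetone, diluted into 0.5% v/v Adigor, sprayed post-emergence on 14-day glasshouse plants (22/16 °C, 16 h light, 65% humidity), typically at 60, 90 or 120 g/ha, with or without 50 g/ha cloquintocet-mexyl safener. Phytotoxicity scored visually 14 DAA (0–100%), mean of two replicates.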

Spring Wheat “Teal” = experiment: as above; settings: 14 DAA
Outline: as §1

Winter Wheat “Hereward” = experiment: as above; settings: 14 DAA
Outline: as §1

Winter Barley “Suzuka” = experiment: as above; settings: 14 DAA
Outline: as §1

[2] = test system: grassy monocotyledonous weeds; experiment: Test 1B glasshouse assay, post-emergence, comparison of separated enantiomers, weeds overall; settings: chiral-column-separated enantiomers, A98 vs A99 and A100 vs A101, Biological Example 1B
Protocol: Biological Example 1B tests the herbicidal activity of“technical” compounds (i.e. compounds not previously formulated before the test), as the herbicides under test.
An “instant formulation”, known as the “IF50”, containing 50 g/liter (i.e. 5% w/v) of the “technical” (i.e. unformulated) active ingredient (i.e. the herbicide under test), is prepared by dissolving the active ingredient in a mixture of organic solvents and emulsifier, details of which are provided in the Table below. […]
The test plants are then grown on under controlled conditions in the glasshouse (at 22/16° C., day/night; 16 hours light; 65% humidity) and are watered twice daily. 14 days after application of the test herbicide, the test is evaluated visually for percentage phytotoxicity to the plant (where 100%=total damage to plant; 0%=no damage to plant). […]
Herbicidal activity (phytotoxicity) is evaluated visually, and an assessed percentage phytotoxicity score is given for each herbicidal application on each plant species (with 100%=total damage to plant; 0%=no damage to plant; the assessment is recorded in increments of 1%). […]

[3] = test system: Lolium multiflorum (LOLMU); experiment: Test 1B glasshouse assay, post-emergence herbicidal activity against grassy weeds; settings: 14 DAA
Outline: (§2)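 Post-emergence spray, 14-day-old plants, glasshouse 22/16 °C day/night, 16 h light, 65% humidity. Test herbicide typically 60, 90 or 120 g/ha; cloquintocet-mexyl safener 50 g/ha optional at 60, included at 90/120. Scored visually 14 DAA, 0–100% damage, 2 reps averaged.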

Poa annua (POAAN) = experiment: as above; settings: 14 DAA
Outline: as §2

[4] = test system: Alopecurus myosuroides (ALOMY); experiment: as above; settings: 14 DAA
Outline: as §2

Avena fatua (AVEFA) = experiment: as above; settings: 14 DAA
Outline: as §2

Setaria viridis (SETVI) = experiment: as above; settings: 14 DAA
Outline: as §2

[5] = 60 g/ha herbicide, 0 g/ha cloquintocet-mexyl, test result no. 1 (T1)
[6] = 60 g/ha herbicide, 50 g/ha cloquintocet-mexyl, test result no. 1 (T1)
[7] = 60 g/ha herbicide, 50 g/ha cloquintocet-mexyl, test result no. 2 (T2)
[8] = 90 g/ha herbicide, 50 g/ha cloquintocet-mexyl, test result no. 2 (T2)
[9] = 120 g/ha herbicide, 50 g/ha cloquintocet-mexyl, test result no. 2 (T2)

How did the “Post-emergence herbicidal activity against cereal crops, percentage phytotoxicity, Spring Barley “Harrington”” value [1, 5] turn out when `Cc1cc(-n2cc(Cl)cn2)cc(C)c1C1C(=O)C[C@@H](CCNC(=O)c2ccccn2)C1=O` (stereo partly drawn) [Compound A98, N-[2-[(1R)-3-[4-(4-chloropyrazol-1-yl)-2,6-dimethyl-phenyl]-2,4-dioxo-cyclopentyl]ethyl]pyridine-2-carboxamide] was run?
The value was 33 (T1) %.

And the “Post-emergence herbicidal activity against cereal crops, percentage phytotoxicity, Spring Barley “Harrington”” value [1, 6]?
The value was 10 (T1); %.

What about the “Post-emergence herbicidal activity against cereal crops, percentage phytotoxicity, Spring Barley “Harrington”” value [1, 7] of the same compound?
Its value is 4 (T2) %.

And the “Post-emergence herbicidal activity against cereal crops, percentage phytotoxicity, Spring Barley “Harrington”” value [1, 8]?
The value was 5 (T2) %.

What about the “Post-emergence herbicidal activity against cereal crops, percentage phytotoxicity, Spring Barley “Harrington”” value [1, 9] of the same compound?
Its value is 15 (T2) %.

What about the “Post-emergence herbicidal activity against cereal crops, percentage phytotoxicity, Spring Wheat “Teal”” value (Spring Wheat “Teal”; [5]) of the same compound?
Its value is 30 (T1) %.

And the “Post-emergence herbicidal activity against cereal crops, percentage phytotoxicity, Spring Wheat “Teal”” value (Spring Wheat “Teal”; [6])?
The value was 10 (T1); %.

What about the “Post-emergence herbicidal activity against cereal crops, percentage phytotoxicity, Spring Wheat “Teal”” value (Spring Wheat “Teal”; [7]) of the same compound?
Its value is 5 (T2) %.

And the “Post-emergence herbicidal activity against cereal crops, percentage phytotoxicity, Spring Wheat “Teal”” value (Spring Wheat “Teal”; [8])?
The value was 13 (T2) %.

And the “Post-emergence herbicidal activity against cereal crops, percentage phytotoxicity, Spring Wheat “Teal”” value (Spring Wheat “Teal”; [9])?
Its value is 20 (T2) %.

And the “Post-emergence herbicidal activity against cereal crops, percentage phytotoxicity, Winter Wheat “Hereward”” value (Winter Wheat “Hereward”; [5])?
Its value is 35 (T1) %.

What about the “Post-emergence herbicidal activity against cereal crops, percentage phytotoxicity, Winter Wheat “Hereward”” value (Winter Wheat “Hereward”; [6]) of the same compound?
Its value is 13 (T1); %.

What about the “Post-emergence herbicidal activity against cereal crops, percentage phytotoxicity, Winter Wheat “Hereward”” value (Winter Wheat “Hereward”; [7]) of the same compound?
Its value is 9 (T2) %.

And the “Post-emergence herbicidal activity against cereal crops, percentage phytotoxicity, Winter Wheat “Hereward”” value (Winter Wheat “Hereward”; [8])?
The value was 13 (T2) %.

What about the “Post-emergence herbicidal activity against cereal crops, percentage phytotoxicity, Winter Wheat “Hereward”” value (Winter Wheat “Hereward”; [9]) of the same compound?
The value was 23 (T2) %.

What about the “Post-emergence herbicidal activity against cereal crops, percentage phytotoxicity, Winter Barley “Suzuka”” value (Winter Barley “Suzuka”; [5]) of the same compound?
Its value is 75 (T1) %.

And the “Post-emergence herbicidal activity against cereal crops, percentage phytotoxicity, Winter Barley “Suzuka”” value (Winter Barley “Suzuka”; [6])?
Its value is 13 (T1); %.

And the “Post-emergence herbicidal activity against cereal crops, percentage phytotoxicity, Winter Barley “Suzuka”” value (Winter Barley “Suzuka”; [7])?
Its value is 8 (T2) %.

What about the “Post-emergence herbicidal activity against cereal crops, percentage phytotoxicity, Winter Barley “Suzuka”” value (Winter Barley “Suzuka”; [8]) of the same compound?
The value was 9 (T2) %.

And the “Post-emergence herbicidal activity against cereal crops, percentage phytotoxicity, Winter Barley “Suzuka”” value (Winter Barley “Suzuka”; [9])?
The value was 40 (T2) %.

What about the “herbicidal activity against grassy monocotyledonous weeds compared with the compound of opposite stereochemistry” value [2] of the same compound?
The value was “more potent herbicidal activity”.

And the “Post-emergence herbicidal activity, percentage phytotoxicity, LOLMU” value [3, 5]?
Its value is 95 (T1) %.

And the “Post-emergence herbicidal activity, percentage phytotoxicity, LOLMU” value [3, 6]?
The value was 95 (T1); %.

What about the “Post-emergence herbicidal activity, percentage phytotoxicity, LOLMU” value [3, 7] of the same compound?
The value was 100 (T2) %.

What about the “Post-emergence herbicidal activity, percentage phytotoxicity, LOLMU” value [3, 8] of the same compound?
The value was 100 (T2) %.

What about the “Post-emergence herbicidal activity, percentage phytotoxicity, LOLMU” value [3, 9] of the same compound?
The value was 100 (T2) %.

What about the “Post-emergence herbicidal activity, percentage phytotoxicity, POAAN” value (Poa annua (POAAN); [5]) of the same compound?
Its value is 78 (T1) %.

And the “Post-emergence herbicidal activity, percentage phytotoxicity, POAAN” value (Poa annua (POAAN); [6])?
The value was 75 (T1); %.

And the “Post-emergence herbicidal activity, percentage phytotoxicity, POAAN” value (Poa annua (POAAN); [7])?
Its value is 75 (T2) %.

And the “Post-emergence herbicidal activity, percentage phytotoxicity, POAAN” value (Poa annua (POAAN); [8])?
The value was 78 (T2) %.

And the “Post-emergence herbicidal activity, percentage phytotoxicity, POAAN” value (Poa annua (POAAN); [9])?
The value was 83 (T2) %.

What about the “Post-emergence herbicidal activity, percentage phytotoxicity, ALOMY” value [4, 5] of the same compound?
Its value is 80 (T1) %.

And the “Post-emergence herbicidal activity, percentage phytotoxicity, ALOMY” value [4, 6]?
The value was 80 (T1); %.

And the “Post-emergence herbicidal activity, percentage phytotoxicity, ALOMY” value [4, 7]?
The value was 78 (T2) %.

What about the “Post-emergence herbicidal activity, percentage phytotoxicity, ALOMY” value [4, 8] of the same compound?
Its value is 88 (T2) %.

And the “Post-emergence herbicidal activity, percentage phytotoxicity, ALOMY” value [4, 9]?
Its value is 97 (T2) %.

And the “Post-emergence herbicidal activity, percentage phytotoxicity, AVEFA” value (Avena fatua (AVEFA); [5])?
The value was 100 (T1) %.

What about the “Post-emergence herbicidal activity, percentage phytotoxicity, AVEFA” value (Avena fatua (AVEFA); [6]) of the same compound?
Its value is 100 (T1); %.

What about the “Post-emergence herbicidal activity, percentage phytotoxicity, AVEFA” value (Avena fatua (AVEFA); [7]) of the same compound?
The value was 100 (T2) %.

What about the “Post-emergence herbicidal activity, percentage phytotoxicity, AVEFA” value (Avena fatua (AVEFA); [8]) of the same compound?
The value was 100 (T2) %.

What about the “Post-emergence herbicidal activity, percentage phytotoxicity, AVEFA” value (Avena fatua (AVEFA); [9]) of the same compound?
The value was 100 (T2) %.

And the “Post-emergence herbicidal activity, percentage phytotoxicity, SETVI” value (Setaria viridis (SETVI); [5])?
Its value is 94 (T1) %.

What about the “Post-emergence herbicidal activity, percentage phytotoxicity, SETVI” value (Setaria viridis (SETVI); [6]) of the same compound?
Its value is 97 (T1); %.

And the “Post-emergence herbicidal activity, percentage phytotoxicity, SETVI” value (Setaria viridis (SETVI); [7])?
The value was 100 (T2) %.

What about the “Post-emergence herbicidal activity, percentage phytotoxicity, SETVI” value (Setaria viridis (SETVI); [8]) of the same compound?
Its value is 100 (T2) %.

And the “Post-emergence herbicidal activity, percentage phytotoxicity, SETVI” value (Setaria viridis (SETVI); [9])?
Its value is 100 (T2) %.
